Among the data in ChEMBL document CHEMBL1833813, “Synthesis of a series of γ-amino alcohols comprising an N-methyl isoindoline moiety and their evaluation as NMDA receptor antagonists” (Bioorg Med Chem Lett, 2011) are Activity, IC50 and residual current values, retold here.

Data set [1] is filed under the species Sus scrofa. Nature of the data set: Displacement of [3H]MK-801 from NMDA-NR2B receptor in porcine hippocampus synaptosomal fractions at 100 uM after 15 mins relative to control. The data set is classed as tissue-based.
Data set [2] in a line: Displacement of [3H]-ifenprodil from ifenprodil binding site of NMDA receptor in porcine hippocampus synaptosomal fractions after 2 hrs. The format is tissue-based, Sus scrofa.
A short description of data set [3]: Displacement of [3H]MK-801 from high affinity site of NMDA-NR2B receptor in porcine hippocampus synaptosomal fractions after 15 mins. The format is tissue-based, Sus scrofa.
The next data set deals with hERG (KCNH2) (Homo sapiens, UniProt Q12809). Nature of the data set: Residual current of human ERG expressed in CHO-K1 cells at 100 uM by patch clamp electrophysiological assay relative to control. The settings on record: CHO-K1 cells expressing human ERG.
Chain of hERG (KCNH2) (Q12809 whole entry): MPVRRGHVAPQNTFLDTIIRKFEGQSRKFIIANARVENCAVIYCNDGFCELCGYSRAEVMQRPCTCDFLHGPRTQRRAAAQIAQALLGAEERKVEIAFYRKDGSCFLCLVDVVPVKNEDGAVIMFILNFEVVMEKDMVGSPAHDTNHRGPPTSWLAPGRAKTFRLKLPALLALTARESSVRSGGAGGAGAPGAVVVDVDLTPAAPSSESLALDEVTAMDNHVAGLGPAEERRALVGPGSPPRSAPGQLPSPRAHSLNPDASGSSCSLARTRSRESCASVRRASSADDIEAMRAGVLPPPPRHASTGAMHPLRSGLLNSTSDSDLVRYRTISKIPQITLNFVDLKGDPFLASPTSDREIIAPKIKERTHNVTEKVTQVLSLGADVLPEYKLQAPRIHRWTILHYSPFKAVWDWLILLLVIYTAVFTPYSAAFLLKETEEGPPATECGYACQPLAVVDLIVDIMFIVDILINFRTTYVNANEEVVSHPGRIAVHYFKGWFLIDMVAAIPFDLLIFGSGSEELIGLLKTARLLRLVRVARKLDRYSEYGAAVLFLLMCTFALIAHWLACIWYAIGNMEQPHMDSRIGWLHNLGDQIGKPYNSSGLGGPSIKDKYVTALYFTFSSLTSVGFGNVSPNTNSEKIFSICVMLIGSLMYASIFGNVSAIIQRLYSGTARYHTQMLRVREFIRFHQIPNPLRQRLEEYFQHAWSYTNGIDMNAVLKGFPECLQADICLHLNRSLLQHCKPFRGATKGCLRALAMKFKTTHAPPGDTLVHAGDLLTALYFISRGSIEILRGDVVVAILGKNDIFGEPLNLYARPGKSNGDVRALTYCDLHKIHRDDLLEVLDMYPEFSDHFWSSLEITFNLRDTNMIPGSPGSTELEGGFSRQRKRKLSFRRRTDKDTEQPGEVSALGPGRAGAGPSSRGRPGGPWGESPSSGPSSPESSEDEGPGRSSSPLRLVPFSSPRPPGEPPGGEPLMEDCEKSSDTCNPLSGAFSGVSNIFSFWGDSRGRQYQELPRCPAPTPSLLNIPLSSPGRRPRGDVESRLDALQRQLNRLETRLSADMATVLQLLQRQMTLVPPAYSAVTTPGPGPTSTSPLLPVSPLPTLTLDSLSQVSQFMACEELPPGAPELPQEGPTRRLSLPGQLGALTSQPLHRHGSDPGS
Data set [4] in a line: Displacement of [3H]MK-801 from low affinity site of NMDA receptor in porcine hippocampus synaptosomal fractions after 15 mins. The data set is classed as tissue-based, Sus scrofa.
Data set [5] in a line: Displacement of [3H]-ifenprodil from ifenprodil binding site of NMDA receptor low affinity site in porcine hippocampus synaptosomal fractions after 2 hrs. The format is tissue-based, Sus scrofa.
Data set [6] can be described thus: Displacement of [3H]MK-801 from NMDA-NR2B receptor in porcine hippocampus synaptosomal fractions under nonequilibrium conditions after 15 mins. The format is tissue-based, Sus scrofa.
For data set [7], the species on record is Sus scrofa. Briefly: Displacement of [3H]-ifenprodil from ifenprodil binding site of NMDA receptor in porcine hippocampus synaptosomal fractions at 100 uM after 2 hrs relative to control. The data set is classed as tissue-based.

`CN1Cc2ccccc2[C@H]1C[C@@H](O)c1ccc(Cl)cc1` yielded an Activity in the data set filed under Sus scrofa [1] of 78%. The IC50 in data set [2] was 11 µM.

As to `Cc1ccc([C@@H](O)C[C@H]2c3ccccc3CN2C)cc1`, the results for the IC50 in data set [3], in data set [4] and in data set [2] were 0.21 µM, 20 µM and 0.43 µM, respectively. The same molecule gave a residual current at 100 µM at hERG (KCNH2) of 2.6%.

Regarding `CN1Cc2ccccc2[C@@H]1C[C@H](O)c1ccc(Cl)cc1`, the IC50 in data set [3] came to 0.5 µM; in data set [4] it was 67 µM; in data set [2], 0.27 µM. The residual current at 100 µM on hERG (KCNH2) came out at 1.6%.

`COc1cc2c(cc1OC)[C@H](C[C@H](O)c1ccc(Cl)cc1)N(C)CC2`: the figures for the IC50 in data set [3], in data set [5] and in data set [4] were 0.103 µM, 22.5 µM and 23.5 µM, respectively.

With `CN1Cc2ccccc2[C@@H]1C[C@H](O)c1ccc([N+](=O)[O-])cc1`, the IC50 in data set [6] was determined as 43 µM; in data set [2], 7.5 µM.

In the case of `Cc1ccc([C@H](O)C[C@@H]2c3ccccc3CN2C)cc1`, the results for the IC50 in data set [6] and in data set [2] were 31 µM and 35 µM, respectively.

In the data set filed under Sus scrofa [7], `CN1Cc2ccccc2[C@@H]1C[C@@H](O)c1ccc(Cl)cc1` yielded an Activity of 77%. In addition, in data set [6], the IC50 stood at 26 µM.

For the molecule `CN1Cc2ccccc2[C@H]1C[C@H](O)c1ccc(Cl)cc1`, the concentration for half-maximal inhibition (IC50) in data set [6] worked out at 47 µM; in data set [2], 21 µM.

For `CN1Cc2ccccc2[C@H]1C[C@H](O)c1ccc([N+](=O)[O-])cc1`, the IC50 in data set [6] was determined as 43 µM; in data set [2], 42 µM.

The molecule `Cc1ccc([C@H](O)C[C@H]2c3ccccc3CN2C)cc1` showed an Activity in the data set filed under Sus scrofa [7] of 65%. The same molecule returned an IC50 in data set [6] of 28 µM.

The molecule `CN1Cc2ccccc2[C@@H]1C[C@@H](O)c1ccc([N+](=O)[O-])cc1` showed an Activity in the data set listed under Sus scrofa [7] of 54%. The molecule further returned an IC50 in data set [6] of 39 µM.

In the data set filed under Sus scrofa [1], `CN1Cc2ccccc2[C@H]1C[C@@H](O)c1ccc([N+](=O)[O-])cc1` registered an Activity of 82%. Also, the IC50 in data set [2] was determined as 52 µM.

On to `Cc1ccc([C@@H](O)C[C@@H]2c3ccccc3CN2C)cc1`, for which the IC50 in data set [6] is 23 µM; in data set [2], 9.3 µM.
